Data on eleven molecules can be found in patent publication US8138205B2, “Heteroarylalkoxy-substituted quinolone inhibitors of PDE4” (Kalypsys, Inc., priority 2006, dated 2012).

As a reminder, the pIC50 is −log10 of the IC50, conventionally taken in molar units. In general, solubility refers to the dissolved amount per volume that the medium holds. A higher solubility goes with much dissolved substance.

One data set concerns the target T1, PDE4B (Homo sapiens, UniProt Q07343).
T1 construct: hex-histidine (His6) (N); made in house
Description: PDE/AK Biological Activity Assay (coupled PDE/adenylate kinase bioluminescent assay). Type of data set: biochemical. To be noted: catalytic domain of PDE4B, read-out: PDE4 Enzyme IC50. The text has this: Phosphodiesterases regulate the activity of the second messenger cyclic adenosine monophosphate (cAMP) by hydrolyzing cAMP to adenosine monophosphate (AMP). We developed a coupled PDE/AK bioluminescent high-throughput assay to measure the activity of phosphodiesterases. In the PDE/AK assay, the AMP produced from the hydrolysis of cAMP by phosphodiesterase is converted to adenosine diphosphate (ADP) by the phosphotransferase activity of adenylate kinase (also known as ADK or myokinase). Adenylate kinase will catalyze the conversion of 1 mole of AMP and 1 mole of ATP into 2 moles of ADP. Thus the conversion of AMP to ADP will result in the subsequent loss of ATP. The decrease in ATP concentration can be monitored as light output using luciferase in a reaction that requires ATP to produce light. The PDE/AK assay uses luciferase, which catalyzes the production of light from ATP present in the reaction mix. The amount of emitted light is inversely proportional to the level of AMP present in the reaction. Test compounds are incubated with the phosphodiesterases and phosphodiesterase inhibitors will decrease the rate of cAMP hydrolysis and decrease the subsequent production of AMP. Thus phosphodiesterase inhibitors will decrease the conversion of ATP to ADP and result in the greatest emission of light.
Compounds may be screened for functional potency in in vitro biochemical assays for their ability to inhibit the activity of phosphodiesterase (PDE) enzymes. A coupled PDE/AK assay was utilized to measure the inhibitory activity of compounds on PDE isoforms. The catalytic domain of PDE4B was fused to an amino-terminus hex-histidine affinity tag and purified. PDE4B enzyme was incubated with compounds for 10 minutes. Cyclic AMP substrate, ATP and adenylate kinase were then added to the PDE enzyme mix and incubated for 45 minutes at room temperature. A commercial ATP detection assay, Perkin Elmer's easyLite ATP detection reagent, was then added to measure the relative amount of ATP present in the reaction. After 10 minute incubation, the luminescent signal was quantitated with either the Perkin Elmer Viewlux or Molecular Devices Acquest or Analyst. Roflumilast and Rolipram are the positive controls used in the assay.

The next data set in a line: Solubility Protocol. In kind it is physicochemical. To be noted: aqueous buffer, thermodynamic from solid; pH 7.4, 0.1 M sodium phosphate buffer. The protocol:
About 5 mg of a compound was mixed with 500 μL of pH 7.4, 0.1 M sodium phosphate buffer. The mixture was adjusted to the original pH of 7.4 and then mixed overnight or longer via rotary mixing. The sample was checked for pH and then filtered through a 0.45 μm filter. If the pH drifted away, the sample was adjusted to its original pH and mixed for at least 15 minutes before filtration. The filtrate was analyzed using HPLC.

The nature of another data set: Stability Protocol. Type of data set: physicochemical. To be noted: pH 7.4 sodium phosphate buffer, preliminary shelf life (T90) estimated from stressed samples. The method, then:
About 3 mg of a compound was dissolved in 3 mL of acetonitrile/water mixture (50/50). 100 μL of the stock solution was added to 20 mL each of 0.025 M pH 5.0 sodium acetate buffer (A5.0), 0.025 M pH 5.0 citrate buffer (C5.0) and 0.025 M pH 7.4 sodium phosphate buffer (P7.4). A two mL aliquot of each solution was kept in a glass vial equipped a cap lined with Teflon. Two vials containing the solution were stored at 4° C. or −20° C. as control. Other aliquots were stressed at RT, 45° C. or 75° C. for specified time check points, e.g. 1 day, 1 w, 2 w, 4 w, 8 w,12 w. The stressed samples in duplicate were assayed against the control using HPLC. The results were reported in % degradation. Preliminary shelf life (T90) was estimated assuming the rate of chemical degradation is double when the temperature is up 10° C.

Molecules are shown by their SMILES. pIC50: −log10 of the molar value.

T1 sequence (Q07343 330-659 limits assumed, species assumed): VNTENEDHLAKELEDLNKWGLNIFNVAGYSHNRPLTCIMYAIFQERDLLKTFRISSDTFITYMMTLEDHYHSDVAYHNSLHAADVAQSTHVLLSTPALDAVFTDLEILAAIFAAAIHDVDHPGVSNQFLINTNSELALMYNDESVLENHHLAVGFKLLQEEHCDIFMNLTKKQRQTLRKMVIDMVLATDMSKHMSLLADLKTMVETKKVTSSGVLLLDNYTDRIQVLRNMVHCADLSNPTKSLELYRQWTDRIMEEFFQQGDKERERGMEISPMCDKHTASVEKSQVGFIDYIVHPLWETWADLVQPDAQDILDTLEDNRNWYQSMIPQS

Take `COc1ccc2c(Nc3c(C)cncc3C)cc(=O)[nH]c2c1OCCCCCCN1CCOCC1` [Example 35, 4-(3,5-Dimethylpyridin-4-ylamino)-7-methoxy-8-(6-morpholinohexyloxy)quinolin-2(1H)-one]: the pIC50 at PDE4B is more than 6.00. Moreover, the solubility in the data set “Solubility Protocol” was not below 1000 µg/mL. Moreover, the “Stability, pH 7.4” value in “Stability Protocol” is listed as “+ (+ indicates ≧1 Year)”.
On to `COc1ccc2c(Nc3c(Cl)cncc3Cl)cc(=O)[nH]c2c1OCCCCCCN1CCN(C)CC1` [Example 15, 4-(3,5-Dichloropyridin-4-ylamino)-7-methoxy-8-(6-(4-methylpiperazin-1-yl)hexyloxy)quinolin-2(1H)-one], for which the pIC50 on PDE4B is more than 6.00. Also, the solubility in the data set “Solubility Protocol” is not below 1000 µg/mL. Also, the “Stability, pH 7.4” value in the data set “Stability Protocol” was “+ (+ indicates ≧1 Year)”.
For `COc1ccc2c(Nc3c(Cl)cncc3Cl)cc(=O)[nH]c2c1OCCCCCN(C)C` [Example 14, 4-(3,5-Dichloropyridin-4-ylamino)-8-(5-(dimethylamino)pentyloxy)-7-methoxyquinolin-2(1H)-one], the solubility in the data set “Solubility Protocol” is not below 1000 µg/mL. Further, in the data set “Stability Protocol”, the “Stability, pH 7.4” value is given as “+ (+ indicates ≧1 Year)”.
Turning to `COc1ccc2c(Nc3c(Cl)cncc3Cl)cc(=O)[nH]c2c1OCC(C)C` [Example 61, 4-(3,5-dichloropyridin-4-ylamino)-8-isobutoxy-7-methoxyquinolin-2(1H)-one], at PDE4B, the pIC50 is more than 6.00. Also, the “Stability, pH 7.4” value in “Stability Protocol” was “+ (+ indicates ≧1 Year)”.
For `COc1ccc2c(Nc3c(Cl)cncc3Cl)cc(=O)[nH]c2c1OCCCCC(N)=O` [Example 57, 5-(4-(3,5-dichloropyridin-4-ylamino)-7-methoxy-2-oxo-1,2-dihydroquinolin-8-yloxy)pentanamide], the pIC50 on PDE4B was more than 6.00. The solubility in the data set “Solubility Protocol” was not below 1000 µg/mL. Besides, the “Stability, pH 7.4” value in “Stability Protocol” is “+ (+ indicates ≧1 Year)”.
On to `COc1ccc2c(Nc3c(Cl)cncc3Cl)cc(=O)[nH]c2c1OCCCN1CCOCC1` [Example 19, 4-(3,5-dichloropyridin-4-ylamino)-7-methoxy-8-(3-morpholinopropoxy)quinolin-2(1H)-one], for which the negative logarithm of the IC50 (pIC50) on PDE4B is more than 6.00. In “Solubility Protocol”, this molecule registered a solubility not below 1000 µg/mL. In addition, the “Stability, pH 7.4” value in “Stability Protocol” is given as “+ (+ indicates ≧1 Year)”.
Consider `COc1ccc2c(Nc3c(Cl)cncc3Cl)cc(=O)[nH]c2c1OCCCN1CCN(C)CC1` [Example 18, 4-(3,5-dichloropyridin-4-ylamino)-7-methoxy-8-(3-(4-methylpiperazin-1-yl)propoxy)quinolin-2(1H)-one], for which the negative logarithm of the IC50 (pIC50) on PDE4B was more than 6.00. The molecule further showed a solubility in “Solubility Protocol” not below 1000 µg/mL. Further, the “Stability, pH 7.4” value in “Stability Protocol” is reported as “+ (+ indicates ≧1 Year)”.
Take `COc1ccc2c(Nc3c(Cl)cncc3Cl)cc(=O)[nH]c2c1OCCCCCc1nn[nH]n1` [Example 69, 8-(5-(2H-tetrazol-5-yl)pentyloxy)-4-(3,5-dichloropyridin-4-ylamino)-7-methoxyquinolin-2(1H)-one]: at PDE4B, the pIC50 was more than 6.00. The “Stability, pH 7.4” value in the data set “Stability Protocol” is “+ (+ indicates ≧1 Year)”.
On the same counts, the results for `COc1ccc2c(Nc3c(C)cncc3C)cc(=O)[nH]c2c1OCCCCn1ccnc1` [Example 78, 8-(4-(1H-imidazol-1-yl)butoxy)-4-(3,5-dimethylpyridin-4-ylamino)-7-methoxyquinolin-2(1H)-one] are more than 6.00 and “+ (+ indicates ≧1 Year)”.
On the same counts, the results for `COc1ccc2c(Nc3c(C)cncc3C)cc(=O)[nH]c2c1OCCCCCn1ccnc1` [Example 79, 8-(5-(1H-imidazol-1-yl)pentyloxy)-4-(3,5-dimethylpyridin-4-ylamino)-7-methoxyquinolin-2(1H)-one] are more than 6.00 and “+ (+ indicates ≧1 Year)”.
On to `COc1ccc2c(Nc3c(Cl)cncc3Cl)cc(=O)[nH]c2c1OCCCCCC(=O)O` [Example 11, 6-(4-(3,5-Dichloropyridin-4-ylamino)-7-methoxy-2-oxo-1,2-dihydroquinolin-8-yloxy)hexanoic acid], for which, in “Solubility Protocol”, the solubility was not below 1000 µg/mL. The “Stability, pH 7.4” value in “Stability Protocol” is reported as “+ (+ indicates ≧1 Year)”.
